Reference: US8969577B2, “Curable composition comprising a thermolatent base” (BASF SE, priority 2008, dated 2015)

Assay: Curing of powder coating formulation, conversion of epoxy groups by ATR-IR
Details: for Conversion 5′ 100° C. / Conversion 5′ 130° C. / Conversion 5′ 150° C. / Conversion 5′ 180° C.: Table 4, amount 1 wt. %; for Conversion 5′ 100° C. / Conversion at 5′ 100° C.: 5 min 100° C.; for Conversion 5′ 130° C. / Conversion at 5′ 130° C.: 5 min 130° C.; for Conversion 5′ 150° C. / Conversion at 5′ 150° C.: 5 min 150° C.; for Conversion 5′ 180° C.: 5 min 180° C.; for Conversion at 15′ 120° C.: 15 min 120° C.
Method: A powder coating formulation consisting of an acidic functional polyester and an epoxy functional polymer that cures without a catalyst at 200° C. for 20 minutes is used. The solid coating formulation is dissolved at 50% solids in methyl-iso-butyl ketone for ease of application. The curing catalyst is added in varying amounts from 0.5 up to 1.5% by weight, based on solids. The thermolatent compounds are compared with imidazole or compound 1 as a reference base. The formulation is applied at wet thickness 250 μm using a wire bar. The solvent is evaporated at room temperature during 30 minutes, and the coating formulation is cured for given times and at the specified temperature (cf. Tables 2 to 4). The curing progress is evaluated using attenuated total reflection infrared (IR) spectroscopy. The fading of the epoxy-attributable peak at 899-921 cm^−1 in comparison to the stable reference peak at 814-841 cm^−1 is used for the calculation of the conversion of epoxy groups.

## c1c[nH]cn1 [imidazole, reference compound]
  Conversion 5′ 100° C.: 53%
  Conversion 5′ 130° C.: 74%
  Conversion 5′ 150° C.: 100%
  Conversion 5′ 180° C.: 100%
Amount 0.5 wt. %
  Conversion at 5′ 100° C.: 26%
  Conversion at 5′ 130° C.: 35%
  Conversion at 5′ 150° C.: 100%
  Conversion at 15′ 120° C.: 100%

## CN(C)CCCNc1ccc2ccccc2n1 [Compound 16]
  Conversion 5′ 100° C.: 0%
  Conversion 5′ 130° C.: 0%
  Conversion 5′ 150° C.: 20%
  Conversion 5′ 180° C.: 100%

## C1=CC2=NCCN2C=C1 [Compound 1, reference compound]
Amount 0.5 wt. %
  Conversion at 5′ 100° C.: 13%
  Conversion at 15′ 120° C.: 98%

## OCCNc1ccccn1 [Compound 2, 2-(pyridine-2-ylamino)ethanol]
Amount 0.5 wt. %
  Conversion at 5′ 130° C.: 26%
  Conversion at 5′ 150° C.: 97%

## CC(C)(C)OC(=O)OCCNc1ccccn1 [Compound 3]
Amount 1.0 wt. %
  Conversion at 5′ 130° C.: 22%
  Conversion at 5′ 150° C.: 94%
Amount 1.5 wt. %
  Conversion at 5′ 130° C.: 23%
  Conversion at 5′ 150° C.: 100%

## CCNC(=O)OCCNc1ccccn1 [Compound 7]
Amount 1.0 wt. %
  Conversion at 5′ 130° C.: 14%
  Conversion at 5′ 150° C.: 95%
Amount 1.5 wt. %
  Conversion at 5′ 130° C.: 29%
  Conversion at 5′ 150° C.: 93%
